Measurements reported in US5283255A, “Wavelength-specific cytotoxic agents” (The University of British Columbia, priority 1992, dated 1994).
Where two headings read alike, the source gives them in different places.

Columns and labels:
M-1 rhabdomycoscercoma = assay: In vivo photosensitization, M-1 rhabdomyosarcoma system in DBA/J2 mice; conditions: for Number of Days Tumor Free (PR) / Cures (tumor regressed and tumor-free for 30 days): Table 6; for Number of Days Tumor Free (PR): 567 Jo/cm^2, IV 24 h before light; for Cures (tumor regressed and tumor-free for 30 days): 567 Jo/cm^2, 8 animals per group; for Days Tumor-free / Number of Cures: Table 7, light dose 378 To/cm^3; for Number of Cures: 9-15 animals
Method: Studies of potential photosensitizers were performed using the M-1 rhabdomycoscercoma system in DBA/J2 mice. The compositions to be tested were diluted to a concentration of […] in PBS from a stock solution in DMSO at 8 mg/ml (except Photofrin® II, which was diluted directly from the clinical vial). […]

Absorption spectrum = assay type: physicochemical; conditions: R^1 and R^2 carbomethoxy; FIG. 3
Text: All of the compositions of the invention employ as the light absorbing compound, a derivative of the protoporphyrin ring system which has a light absorption maximum in the range of 670-780 nanometers. […] Only BPD-DA has a major absorption peak at about 685 nm.

tumor cells = assay: Alternate in vivo assay: kill of tumor cells from dosed mice (MTT); conditions: 180 min
tumor and normal tissues = conditions: mouse, in vivo
Text: Biodistribution studies have been conducted using tritiated BPD-MA and BPD-MB.

[1] = Solubility on dilution for addition to blood; conditions: DMSO stock 8 mg/ml diluted into PBS
skin = assay: Skin sensitivity assay in mice bearing P815 tumors
Method: Mice bearing P815 tumors were shaved and injected with equivalent amounts of photosensitizer, and exposed to 72 Jo/cm^2 (80 mw/cm^2 -15 min-full spectrum) at various time intervals. Skin biopsies were taken at 24 and 48 hours after light irradiation and visual evaluations were made blind.

VSV = assay: microbe, parasite or virus in culture; parameters: species or system Vesicular stomatitis virus; conditions: Vesicular stomatitis virus, light or radiation study, 2 h, read-out: viral kill, 2 μg/ml; 1 ml; 2 h; 57.6 J/cm^2
target cells = assay: In vitro evaluation of BPD-DA, -MA, -DB and -MB (as in Example 1); assay type: cell-based
Method: For the "affinity" assay, in the dark, 100 μl of the target cell suspension and 100 μl of the test or control compound were mixed. "Labeling" was allowed to continue for one hour at 4° C., and labeled cells were washed in the dark three times with 3 ml medium each time and resuspended in fresh medium. The resuspended cells were then subjected to light exposure at 300-750 nanometers for 30 minutes.
In a "direct" assay the target cells were irradiated immediately upon addition of the test or control compound.
The effect of irradiation was estimated using methods appropriate to the target cells.
The four compounds shown in FIG. 2, wherein R^1 and R^2 are carbomethoxy, were tested in vitro as described in Example 1.

Question: What does the source list for `C=Cc1c(C)c2cc3nc(cc4[nH]c(cc5nc(cc1[nH]2)C(C)=C5CCC(=O)O)c(CCC(=O)O)c4C)C1(C)C3=CC=C(C(=O)OC)C1C(=O)OC` (stereo not drawn) [BPD-DA]?
Answer: Number of Days Tumor Free (PR) (M-1 rhabdomycoscercoma): 10.7 days; Cures (tumor regressed and tumor-free for 30 days) (M-1 rhabdomycoscercoma): 4; Days Tumor-free (M-1 rhabdomycoscercoma): 2.5 days; Number of Cures (M-1 rhabdomycoscercoma): 4; major absorption peak (Absorption spectrum): about 685 nm; % Kill (tumor cells; 80 μg/mouse IV, light dose 3.8 Jo): 11.0%; % Kill (tumor cells; 80 μg/mouse IV, light dose 7.6 Jo): 26.0%

Question: Which results are given for `C=Cc1c(C)c2cc3nc(cc4[nH]c(cc5nc(cc1[nH]2)C(C)=C5CCC(=O)O)c(CCC(=O)OC)c4C)C1(C)C3=CC=C(C(=O)OC)C1C(=O)OC` (stereo not drawn) [^3 H-BPD-MA]?
Answer: ratio of concentration in tumor to Blood (tumor and normal tissues; 180 min): 0.52; ratio of concentration in tumor to Brain (tumor and normal tissues; 180 min): 3.76; ratio of concentration in tumor to Heart (tumor and normal tissues; 180 min): 1.09; ratio of concentration in tumor to Intestine (tumor and normal tissues; 180 min): 2.42; ratio of concentration in tumor to Lung (tumor and normal tissues; 180 min): 0.79; ratio of concentration in tumor to Muscle (tumor and normal tissues; 180 min): 2.68; ratio of concentration in tumor to Skin (tumor and normal tissues; 180 min): 2.57; ratio of concentration in tumor to Stomach (tumor and normal tissues; 180 min): 1.57; ratio of concentration in tumor to Blood (tumor and normal tissues; 1440 min): 1.45; ratio of concentration in tumor to Brain (tumor and normal tissues; 1440 min): 3.06; ratio of concentration in tumor to Heart (tumor and normal tissues; 1440 min): 1.71; ratio of concentration in tumor to Intestine (tumor and normal tissues; 1440 min): 1.85; ratio of concentration in tumor to Lung (tumor and normal tissues; 1440 min): 1.55; ratio of concentration in tumor to Muscle (tumor and normal tissues; 1440 min): 2.98; ratio of concentration in tumor to Skin (tumor and normal tissues; 1440 min): 1.64; ratio of concentration in tumor to Stomach (tumor and normal tissues; 1440 min): 1.89; ratio of concentration in tumor to Blood (tumor and normal tissues; 2880 min): 1.37; ratio of concentration in tumor to Brain (tumor and normal tissues; 2880 min): 2.92; ratio of concentration in tumor to Heart (tumor and normal tissues; 2880 min): 1.63; ratio of concentration in tumor to Intestine (tumor and normal tissues; 2880 min): 1.88; ratio of concentration in tumor to Lung (tumor and normal tissues; 2880 min): 1.47; ratio of concentration in tumor to Muscle (tumor and normal tissues; 2880 min): 2.77; ratio of concentration in tumor to Skin (tumor and normal tissues; 2880 min): 1.95; ratio of concentration in tumor to Stomach (tumor and normal tissues; 2880 min): 2.08; ratio of concentration in tumor to Blood (tumor and normal tissues; 4320 min): 1.66; ratio of concentration in tumor to Brain (tumor and normal tissues; 4320 min): 2.69; ratio of concentration in tumor to Heart (tumor and normal tissues; 4320 min): 1.46; ratio of concentration in tumor to Intestine (tumor and normal tissues; 4320 min): 1.48; ratio of concentration in tumor to Lung (tumor and normal tissues; 4320 min): 1.16; ratio of concentration in tumor to Muscle (tumor and normal tissues; 4320 min): 2.16; ratio of concentration in tumor to Skin (tumor and normal tissues; 4320 min): 1.57; ratio of concentration in tumor to Stomach (tumor and normal tissues; 4320 min): 2.04; ratio of concentration in tumor to Blood (tumor and normal tissues; 5760 min): 2.77; ratio of concentration in tumor to Brain (tumor and normal tissues; 5760 min): 4.18; ratio of concentration in tumor to Heart (tumor and normal tissues; 5760 min): 2.24; ratio of concentration in tumor to Intestine (tumor and normal tissues; 5760 min): 3.29; ratio of concentration in tumor to Lung (tumor and normal tissues; 5760 min): 1.63; ratio of concentration in tumor to Muscle (tumor and normal tissues; 5760 min): 3.45; ratio of concentration in tumor to Skin (tumor and normal tissues; 5760 min): 2.03; ratio of concentration in tumor to Stomach (tumor and normal tissues; 5760 min): 2.23; ratio of concentration in tumor to Blood (tumor and normal tissues; 10080 min): 3.65; ratio of concentration in tumor to Brain (tumor and normal tissues; 10080 min): 6.91; ratio of concentration in tumor to Heart (tumor and normal tissues; 10080 min): 2.51; ratio of concentration in tumor to Intestine (tumor and normal tissues; 10080 min): 2.23; ratio of concentration in tumor to Lung (tumor and normal tissues; 10080 min): 1.79; ratio of concentration in tumor to Muscle (tumor and normal tissues; 10080 min): 4.23; ratio of concentration in tumor to Skin (tumor and normal tissues; 10080 min): 3.51; ratio of concentration in tumor to Stomach (tumor and normal tissues; 10080 min): 2.98; Tumor skin ratios, most favorable time (tumor and normal tissues; iv): most favorable 3 hours after IV administration

Question: For `C=Cc1c(C)c2cc3nc(cc4[nH]c(cc5nc(cc1[nH]2)C1(C)C5=CC=C(C(=O)OC)C1C(=O)OC)c(C)c4CCC(=O)O)C(CCC(=O)OC)=C3C` (stereo not drawn) [BPD-MB], which “treatment required to achieve solubility” value [1] is on record?
Answer: required a 20-minute sonication in ultrasonic bath to achieve solubility

Question: And the skin photosensitizing activity (skin; 72 Jo/cm^2, biopsies 24 and 48 h after light)?
Answer: to a lesser extent

Question: What about the “time dependence of skin photosensitizing activity” value (skin; light at various intervals after drug) of the same molecule?
Answer: only present when light treatment was given 3 hours post drug administration

Question: What about the “Number of Days Tumor Free (PR)” value (M-1 rhabdomycoscercoma) of the same molecule?
Answer: 10.6 days

Question: What about the “Cures (tumor regressed and tumor-free for 30 days)” value (M-1 rhabdomycoscercoma) of the same molecule?
Answer: 3

Question: What about the “Days Tumor-free” value (M-1 rhabdomycoscercoma) of the same molecule?
Answer: 8.7 days

Question: And the “Number of Cures” value (M-1 rhabdomycoscercoma)?
Answer: 6

Question: What about the log reduction at 2 µg/mL (VSV) of the same molecule?
Answer: 4

Question: And the “% Kill” value (tumor cells; 33 μg/mouse IV, light dose 5.7 Jo)?
Answer: 25.2%

Question: And the in vitro photosensitivity (target cells)?
Answer: somewhat more active
